Data reported in patent publication US10221137B2, “Herbicidal phenylpyridines” (BASF SE, priority 2015, dated 2019).

How the values were obtained:
Assay in all cases: greenhouse experiment, post-emergence treatment
Format in all cases: in vivo
Conditions in all cases: application rate of 16 g/ha, post-emergence method; scale from 0 to 100
[1] = test system: Setaria viridis
Text: (§1) The seeds of the test plants were sown separately for each species. For the post-emergence treatment, the test plants were first grown to a height of 3 to 15 cm, depending on the plant habit, and only then treated with the active ingredients which had been suspended or emulsified in water. For this purpose, the test plants were either sown directly and grown in the same containers, or they were first grown separately as seedlings and transplanted into the test containers a few days prior to treatment. Depending on the species, the plants were kept at 10-25° C. or 20-35° C., respectively. The test period extended over 2 to 4 weeks. During this time, the plants were tended, and their response to the individual treatments was evaluated. Evaluation was carried out using a scale from 0 to 100. 100 means no emergence of the plants, or complete destruction of at least the aerial moieties, and 0 means no damage, or normal course of growth. A good herbicidal activity is given at values of at least 70 and a very good herbicidal activity is given at values of at least 85. The plants used in the greenhouse experiments were of the following species: [table]

[2] = test system: Chenopodium album
Text: as §1

[3] = test system: Amaranthus retroflexus
Text: as §1

Row | Structure (SMILES) | herbicidal activity against Setaria viridis [1] | herbicidal activity against Chenopodium album [2] | herbicidal activity against Amaranthus retroflexus [3]
1 | COC(=O)C(OC)Oc1cc(-c2ncc(Cl)cc2Cl)ccc1Cl (racemic) [Example 6] | very good herbicidal activity (a very good herbicidal activity is given at values of at least 85) | good herbicidal activity (A good herbicidal activity is given at values of at least 70) | very good herbicidal activity (a very good herbicidal activity is given at values of at least 85)
2 | COc1ccc(CNC(=O)C(OC)Oc2cc(-c3ncc(C(F)(F)F)cc3Cl)c(F)cc2Cl)cc1 (stereo not drawn) [Example 44] | good herbicidal activity (A good herbicidal activity is given at values of at least 70) | very good herbicidal activity (a very good herbicidal activity is given at values of at least 85) | very good herbicidal activity (a very good herbicidal activity is given at values of at least 85)
